From PMC9865890, “N-Derivatives of (Z)-Methyl 3-(4-Oxo-2-thioxothiazolidin-5-ylidene)methyl)-1H-indole-2-carboxylates as Antimicrobial Agents—In Silico and In Vitro Evaluation” (Pharmaceuticals, 2023)
In brackets after ≈: the same amount, converted by molar mass. Like-named read-outs stand apart in the source and are kept apart here.

Tests used:
A. ochraceus = test: Antifungal bioassay (MIC/MFC); type: cell-based; details: A.o. (A. ochraceus)
Method: (§1) For the antifungal bioassays, six fungi were used: […] The organisms were obtained from the Mycological Laboratory, Department of Plant Physiology, Institute for Biological Research “Siniša Stankovic”, Belgrade, Serbia. All experiments were performed in duplicate.

P. ochrochloron = test: Antifungal bioassay (MIC/MFC); type: cell-based; details: for MIC: P.o. (P. ochrochloron; text: P. ochramensis); for MFC: P.o. (P. ochrochloron)
Method: as §1

[1] = system: Trichoderma viride (IAM 5061); test: Antifungal bioassay (MIC/MFC); type: cell-based; details: T.v. (T. viride)
Method: as §1

[2] = system: Aspergillus versicolor (ATCC 11730); test: Antifungal bioassay (MIC/MFC); type: cell-based; details: ATCC11730, A.v. (A. versicolor)
Method: as §1

[3] = system: Aspergillus fumigatus (ATCC 1022); test: Antifungal bioassay (MIC/MFC); type: cell-based; details: ATCC1022, A.f. (A. fumigatus)
Method: as §1

[4] = system: Penicillium funiculosum (ATCC 36839); test: Antifungal bioassay (MIC/MFC); type: cell-based; details: Talaromyces funiculosus, ATCC36839; P.f. (P. funiculosum)
Method: as §1

[5] = system: Aspergillus niger (ATCC 6275); test: Antifungal bioassay (MIC/MFC); type: cell-based; details: ATCC6275, A.n. (A. niger)
Method: as §1

[6] = system: Penicillium verrucosum var. cyclopium (food isolate); test: Antifungal bioassay (MIC/MFC); type: cell-based
Method: For the antifungal bioassays, six fungi were used: Aspergillus niger (ATCC 6275), Aspergillus fumigatus (ATCC 1022), Aspergillus versicolor (ATCC 11730), Penicillium funiculosum (ATCC 36839), Trichoderma viride (IAM 5061), and Penicillium verrucosum var. cyclopium (food isolate). The organisms were obtained from the Mycological Laboratory, Department of Plant Physiology, Institute for Biological Research “Siniša Stankovic”, Belgrade, Serbia. All experiments were performed in duplicate.

[7] = system: Enterobacter cloacae (clinical isolate); test: Antibacterial microdilution (MIC/MBC); type: cell-based; details: Enterobacter cloacae, En.cl (En. cloacae); for MIC: read-out: MIC
Method: (§2) The synthesized compounds (Table 1) were evaluated for their antibacterial activity against a panel of eight species using a microdilution method with ampicillin and streptomycin as reference drugs. […] The order of activity can be presented as: 8 > 11 > 2 > 1 > 12 > 3 > 17 > 7 > 5 > 13 > 14 > 16 > 9 > 4 = 6 > 15 > 10. […] Cloacae. […] The most sensitive bacteria appeared to be En. cloacae, while E. coli was the most resistant one, followed by M. flavus.
(§3) The following Gram-negative bacteria: Escherichia coli (ATCC 35210), Enterobacter cloacae (clinical isolate), Salmonella typhimurium (ATCC 13311), as well as Gram-positive bacteria: Listeria monocytogenes (NCTC 7973), Bacillus cereus (clinical isolate), and Staphylococcus aureus (ATCC 6538) were used. The organisms were obtained from the Mycological Laboratory, Department of Plant Physiology, Institute for Biological Research “Siniša Stankovic”, Belgrade, Serbia. The minimum inhibitory (MIC) and minimum bactericidal (MBC) concentrations were determined by the modified microdilution method, as previously reported.

P. aeruginosa = test: Antibacterial microdilution (MIC/MBC); type: cell-based; details: Pseudomonas aeruginosa, P.a. (P. aeruginosa); for MIC: read-out: MIC
Method: as §2, §3

[8] = system: Staphylococcus aureus (ATCC 6538); test: Antibacterial microdilution (MIC/MBC); type: cell-based; details: S.a. (S. aureus)
Method: as §2, §3

[9] = system: Listeria monocytogenes (NCTC 7973); test: Antibacterial microdilution (MIC/MBC); type: cell-based; details: Listeria monocytogenes, NCTC7973, L.m. (L. monocytogenes); for MIC: read-out: MIC
Method: as §2, §3

[10] = system: Bacillus cereus (clinical isolate); test: Antibacterial microdilution (MIC/MBC); type: cell-based; details: B.c. (B. cereus)
Method: as §2, §3

[11] = system: Escherichia coli (ATCC 35210); test: Antibacterial microdilution (MIC/MBC); type: cell-based; details: Escherichia coli, ATCC35210, E. coli; for MIC: read-out: MIC
Method: as §2, §3

[12] = system: Salmonella typhimurium (ATCC 13311); test: Antibacterial microdilution (MIC/MBC); type: cell-based; details: Salmonella enterica, S.t. (S. typhimurium); for MIC: read-out: MIC
Method: as §2, §3

M. flavus = test: Antibacterial microdilution (MIC/MBC); type: cell-based; details: Micrococcus flavus; M.f. (M. flavus)
Method: as §2, §3

[13] = Aspergillus ochraceus, read-out: MIC
[14] = Penicillium ochrochloron, read-out: MIC
[15] = Trichoderma viride, IAM5061, read-out: MIC
[16] = Staphylococcus aureus, ATCC6538
[17] = Staphylococcus aureus, ATCC6538, read-out: MIC

SMILES | MFC (A. ochraceus; Aspergillus ochraceus) [µg/mL] | MFC (P. ochrochloron; Penicillium ochrochloron) [µg/mL] | MIC (P. ochrochloron; [14]) [µg/mL] | MFC ([1]; Trichoderma viride, IAM5061) [µg/mL] | MIC [1, 15] [µg/mL] | MFC [2] [µg/mL] | MIC [2] [µg/mL] | MFC [3] [µg/mL] | MIC [3] [µg/mL] | MFC [4] [µg/mL] | MIC [4] [µg/mL] | MFC [5] [µg/mL] | MIC [5] [µg/mL] | MFC [6] [µg/mL] | MIC [6] [µg/mL] | melting point [°C] | MBC [7] [µg/mL] | MIC [7] [µg/mL] | MBC (P. aeruginosa) [µg/mL] | MIC (P. aeruginosa) [µg/mL] | also measured
COC(=O)c1[nH]c2ccc(F)cc2c1/C=C1\SC(=S)N(c2ccc(O)cc2)C1=O [Compound 10, (Z)-methyl 5-fluoro-3-((3-(4-hydroxyphenyl)-4-oxo-2-thioxothiazolidin-5-ylidene)methyl)-1H-indole-2-carboxylate] | 8 ± 0.6 (≈ 18.7 µM) | 15 ± 3 (≈ 35 µM) | 8 (≈ 18.7 µM) | 8 ± 0.6 (≈ 18.7 µM) | 4 (≈ 9.34 µM) | 15 ± 3 (≈ 35 µM) | 8 ± 0.6 (≈ 18.7 µM) | 120 ± 40 (≈ 280 µM) | 60 ± 6 (≈ 140 µM) | 15 ± 3 (≈ 35 µM) | 8 ± 0.6 (≈ 18.7 µM) | 15 ± 3 (≈ 35 µM) | 8 ± 0.6 (≈ 18.7 µM) | 30 ± 10 (≈ 70 µM) | 15 ± 3 (≈ 35 µM) | 267 to 268 | 60 ± 6 (≈ 140 µM) | 30 ± 10 (≈ 70 µM) | 60 ± 6 (≈ 140 µM) | 30 ± 10 (≈ 70 µM) | MIC (A. ochraceus): 4 ± 1 µg/mL (≈ 9.34 µM); MIC (A. ochraceus; [13]): 4 µg/mL (≈ 9.34 µM); MIC (P. ochrochloron): 8 ± 0.6 µg/mL (≈ 18.7 µM); MIC [1]: 4 ± 1 µg/mL (≈ 9.34 µM); MBC [8, 16]: 60 ± 6 µg/mL (≈ 140 µM); MIC [8, 17]: 30 ± 10 µg/mL (≈ 70 µM); MBC [9]: 60 ± 6 µg/mL (≈ 140 µM); MIC [9]: 30 ± 10 µg/mL (≈ 70 µM); MBC ([10]; Bacillus cereus): 60 ± 6 µg/mL (≈ 140 µM); MIC ([10]; Bacillus cereus, read-out: MIC): 30 ± 10 µg/mL (≈ 70 µM); MBC [11]: 60 ± 6 µg/mL (≈ 140 µM); MIC [11]: 30 ± 10 µg/mL (≈ 70 µM); MBC [12]: 60 ± 6 µg/mL (≈ 140 µM); MIC [12]: 45 ± 3 µg/mL (≈ 105 µM); MBC (M. flavus): 60 ± 6 µg/mL (≈ 140 µM); MIC (M. flavus): 45 ± 3 µg/mL (≈ 105 µM)
COC(=O)c1[nH]c2ccc(F)cc2c1/C=C1\SC(=S)N(CCCC(=O)O)C1=O [Compound 9, (Z)-4-(5-((5-fluoro-2-(methoxycarbonyl)-1H-indol-3-yl)methylene)-4-oxo-2-thioxothiazolidin-3-yl)butanoic acid] | 8 ± 0.6 (≈ 18.9 µM) | 30 ± 10 (≈ 71 µM) | 15 ± 3 (≈ 35.5 µM) | 15 ± 3 (≈ 35.5 µM) | 8 (≈ 18.9 µM) | 30 ± 10 (≈ 71 µM) | 15 ± 3 (≈ 35.5 µM) | 120 ± 40 (≈ 284 µM) | 90 ± 3 (≈ 213 µM) | 30 ± 10 (≈ 71 µM) | 15 ± 3 (≈ 35.5 µM) | 30 ± 10 (≈ 71 µM) | 15 ± 3 (≈ 35.5 µM) | 15 ± 3 (≈ 35.5 µM) | 22 ± 5 (≈ 52.1 µM) | 192 to 193 | 60 ± 6 (≈ 142 µM) | 30 ± 10 (≈ 71 µM) | 60 ± 6 (≈ 142 µM) | 30 ± 10 (≈ 71 µM) | MIC (A. ochraceus): 4 ± 1 µg/mL (≈ 9.47 µM); MIC (A. ochraceus; [13]): 4 µg/mL (≈ 9.47 µM); MIC [1]: 8 ± 0.6 µg/mL (≈ 18.9 µM); MBC [8, 16]: 60 ± 6 µg/mL (≈ 142 µM); MIC [8, 17]: 30 ± 10 µg/mL (≈ 71 µM); MBC [9]: 60 ± 6 µg/mL (≈ 142 µM); MIC [9]: 30 ± 10 µg/mL (≈ 71 µM); MBC ([10]; Bacillus cereus): 60 ± 6 µg/mL (≈ 142 µM); MIC ([10]; Bacillus cereus, read-out: MIC): 30 ± 10 µg/mL (≈ 71 µM); MBC [11]: 60 ± 6 µg/mL (≈ 142 µM); MIC [11]: 30 ± 10 µg/mL (≈ 71 µM); MBC [12]: 60 ± 6 µg/mL (≈ 142 µM); MIC [12]: 30 ± 10 µg/mL (≈ 71 µM); MBC (M. flavus): 60 ± 6 µg/mL (≈ 142 µM); MIC (M. flavus): 30 ± 10 µg/mL (≈ 71 µM)
COC(=O)c1[nH]c2ccccc2c1/C=C1\SC(=S)N(c2ccc(C(=O)O)cc2)C1=O [Compound 2, (Z)-4-(5-((2-(methoxycarbonyl)-1H-indol-3-yl)methylene)-4-oxo-2-thioxothiazolidin-3-yl)benzoic acid] | 15 ± 3 (≈ 34.2 µM) | 30 ± 10 (≈ 68.4 µM) | 15 ± 3 (≈ 34.2 µM) | 15 ± 3 (≈ 34.2 µM) | 8 ± 0.6 (≈ 18.2 µM) | 30 ± 10 (≈ 68.4 µM) | 15 ± 3 (≈ 34.2 µM) | 60 ± 6 (≈ 137 µM) | 30 ± 10 (≈ 68.4 µM) | 30 ± 10 (≈ 68.4 µM) | 15 ± 3 (≈ 34.2 µM) | 30 ± 10 (≈ 68.4 µM) | 22 ± 5 (≈ 50.2 µM) | 60 ± 6 (≈ 137 µM) | 30 ± 10 (≈ 68.4 µM) | 294 to 295 | 30 ± 10 (≈ 68.4 µM) | 15 ± 9 (≈ 34.2 µM) | 60 ± 6 (≈ 137 µM) | 30 ± 10 (≈ 68.4 µM) | MIC [8]: 15 ± 9 µg/mL (≈ 34.2 µM); MBC [8, 16]: 30 ± 10 µg/mL (≈ 68.4 µM); MIC [8, 17]: 15 µg/mL (≈ 34.2 µM); MBC [9]: 60 ± 6 µg/mL (≈ 137 µM); MIC [9]: 30 ± 10 µg/mL (≈ 68.4 µM); MIC [10]: 15 ± 9 µg/mL (≈ 34.2 µM); MBC ([10]; Bacillus cereus): 30 ± 10 µg/mL (≈ 68.4 µM); MIC ([10]; Bacillus cereus, read-out: MIC): 15 µg/mL (≈ 34.2 µM); MBC [11]: 30 ± 10 µg/mL (≈ 68.4 µM); MIC [11]: 22 ± 5 µg/mL (≈ 50.2 µM); MBC [12]: 30 ± 10 µg/mL (≈ 68.4 µM); MIC [12]: 22 ± 5 µg/mL (≈ 50.2 µM); MBC (M. flavus): 30 ± 10 µg/mL (≈ 68.4 µM); MIC (M. flavus): 22 ± 5 µg/mL (≈ 50.2 µM)
